In patent publication US4780313A (Takeda Chemical Industries, Ltd., priority 1985, dated 1988):

Key:
[1] = system: Meth-A fibrosarcoma cells (Meth-A tumor cells); assay: Antitumor activity, subcutaneous administration, Meth-A tumor-bearing mice (Examples 1 and 4); assay type: in vivo, female BALB/c mice; details: Table 4, day 21
Method: (§1) Meth-A fibrosarcoma cells (Meth-A tumor cells) (1×10^6 cells) were transplanted into each female BALB/c mice (weighing about 20 g) subcutaneously in the flank using a syringe. Seven days after tumor transplantation, mice in which tumor was larger than a certain defined size were chosen and grouped and administration of the test agent was started. The agent was administered subcutaneously in the opposite flank relative to the tumor transplantation site once daily for 10 consecutive days. Each ingredient of the test agent was dissolved in physiological saline (solvent) supplemented in a form of a single preparation with 5% of normal mouse serum in a concentration such that the dose of the solution amounted to 0.1 ml/20 g of mouse body weight. The antitumor effect was evaluated by measuring the tumor weight in each mouse 21 days after tumor transplantation, determining the average tumor weight for each group and calculating the tumor weight ratio (T/C %) between the dosed group (T; 5 animals per group) and the untreated control group (C; 5 to 10 animals per group). The daily dose of each ingredients was expressed in terms of the ingredient weight (mcg) per mouse.

[2] = Body weight gain of tumor-bearing mice, subcutaneous administration (Examples 1 and 4); assay type: in vivo, female BALB/c mice; details: Table 4; TMD-5 200 mcg/mouse/day alone s.c.
Method: as §1

[3] = TMD-76 200 mcg/mouse/day alone s.c. x10 days
[4] = TMD-5 200 mcg/mouse/day alone s.c. x10 days

SMILES | Tumor weight (mg) Mean ± SD [1, 3] | Tumor weight ratio (T/C %) [1, 3] | Tumor weight (mg) Mean ± SD [1, 4] | Tumor weight ratio (T/C %) [1, 4] | Body weight gain (g) (day 7 to day 21) [2]
COC(=O)CC[C@@H](NC(=O)[C@@H](NC(=O)[C@@H](C)O[C@H]1[C@H](O)[C@@H](COC(=O)CCC2=C(C)C(=O)C(OC)=C(OC)C2=O)OC(O)[C@@H]1NC(C)=O)C(C)C)C(N)=O (stereo partly drawn) [TMD-76, 6-0-[3-(2,3-dimethoxy-5-methyl-1,4-benzoquinon-6-yl)propionyl]-N-acetylmuramyl-L-valyl-D-isoglutamine methyl ester] | 5,550 ± 1,776 mg | 97% |  |  | 
CC(=O)N[C@H]1C(O)O[C@H](CO)[C@@H](O)[C@@H]1O[C@H](C)C(=O)NC(C)(C)C(=O)N[C@H](CCC(=O)O)C(N)=O (stereo partly drawn) [TMD-5, N-acetylmuramylaminoisobutyryl-D-isoglutamine] |  |  | 5,662 ± 1,097 mg | 99% | 3.0 g
